# Measured values: PMC5833756, “A novel ruthenium complex with xanthoxylin induces S-phase arrest and causes ERK1/2-mediated apoptosis in HepG2 cells through a p53-independent pathway” (Cell Death & Disease, 2018)
# Where “and” joins values, the source holds several entries; their conditions need not be identical. Identical values can stand only once.
# Key:
# [1] = system: HepG2 cells; experiment: Gene expression analysis by qPCR array (TaqMan Array Human Molecular Mechanisms of Cancer); type: cell-based; conditions: HepG2, 12 h; RCX 12 µM, DOX 2 µM
# Description: HepG2 cells were plated in bottles for cell culture (7 × 10^4 cells/mL). […] The RNA was evaluated by fluorimetry using QuBit (Life Technologies; Camarillo, CA, USA). RNA reverse transcription was performed using a Superscript VILO™ Kit (Invitrogen Corporation; Waltham, MA, USA). A 96-well plate TaqMan® Array Human Molecular Mechanisms of Cancer (ID 4418806, Applied Biosystems^TM, Foster City, CA, USA) was used for the gene expression study by qPCR. The reactions were conducted in an ABI ViiA7 system (Applied Biosystems^TM; Foster City, CA, USA). The cycle conditions comprised 2 min at 50 °C, 20 s at 95 °C, then 40 cycles of 3 s at 95 °C and 30 s at 60 °C. The relative quantification (RQ) of mRNA expression was calculated by the 2^-ΔΔCT method[40] using Gene Expression Suite™ Software (Applied Biosystems^TM), and the cells treated with the negative control (0.2% DMSO) were used as a calibrator. The reactions were normalized by the geometric mean of the RQ of the reference genes GAPDH, 18S and HPRT1. All experiments were performed in DNase/RNase-free conditions.
# [2] = system: WT SV40 MEF; type: cell-based, mouse; conditions: 72 h
# [3] = system: SCC-4; type: cell-based, human; conditions: SCC-4 (human oral squamous cell carcinoma), 72 h
# [4] = system: multicellular spheroids formed from HepG2 cells; experiment: 3D multicellular spheroid culture, alamar blue; type: cell-based, human; conditions: HepG2 3D spheroids, 72 h
# Description: HepG2 cells were cultivated in 3D multicellular spheroids. Briefly, 100 μL of cell solution (0.5 × 10^6 cells/mL) was added to a 96-well plate with a cell-repellent surface (Greiner Bio-One, Kremsmünster, Austria) and cultured in complete medium plus 3% Matrigel (BD Biosciences, San Jose, CA, USA). Spheroids with stable structures formed after three days. Then, the spheroids were exposed to a range of drug concentrations for 72 h. The negative control received the vehicle that was used for diluting the complex tested. In the end of the experiment, morphological changes were examined by light microscopy (Olympus BX41, Tokyo, Japan) using Image-Pro software (Media Cybernetics, Inc. Silver Spring, USA), and cell viability was quantified by alamar blue assay as described above.
# [5] = system: BAD KO SV40 MEF; type: cell-based, mouse; conditions: 72 h
# [6] = system: B16-F10; type: cell-based, mouse; conditions: B16-F10 (murine melanoma), 72 h
# [7] = system: PBMC; type: cell-based; conditions: PBMC (human peripheral blood mononuclear cells, non-cancer), 72 h
# [8] = system: HepG2 cells; experiment: Trypan blue exclusion assay; type: cell-based, human
# [9] = system: HL-60; type: cell-based, human; conditions: HL-60 (human promyelocytic leukemia), 72 h
compound,measurement,setting,value
"COc1cc([O-])c(C(C)=O)c(OC)c1.F[P-](F)(F)(F)(F)F.[Ru+2].c1cnc2c(c1)ccc1cccnc12.c1cnc2c(c1)ccc1cccnc12 [RCX, cis-[Ru(phen)2(xant)](PF6)]",RQ ABL1 gene expression,[1],1.908
same,RQ AKT1 gene expression,[1],1.685
same,RQ AKT2 gene expression,[1],2.7 and 2.697
same,RQ APC gene expression,[1],1.106
same,RQ BAX gene expression,[1],0.887
same,RQ BCAR1 gene expression,[1],2.9 and 2.846
same,RQ BCL2L1 gene expression,[1],0.898
same,RQ BCL2L11 gene expression,[1],9.8 and 9.786
same,RQ BCL2 gene expression,[1],2.4 and 2.377
same,RQ BID gene expression,[1],1.477
same,RQ BRAF gene expression,[1],2.3 and 2.296
same,RQ CASP8 gene expression,[1],1.493
same,RQ CCND1 gene expression,[1],4.8 and 4.752
same,RQ CCND3 gene expression,[1],2.4 and 2.397
same,RQ CCNE1 gene expression,[1],0.674
same,RQ CDC42 gene expression,[1],4.2 and 4.147
same,RQ CDH1 gene expression,[1],1.051
same,RQ CDK2 gene expression,[1],1.251
same,RQ CDK4 gene expression,[1],2.7 and 2.737
same,RQ CDKN1A gene expression,[1],0.628
same,RQ CDKN1B gene expression,[1],0.5 and 0.543
same,RQ CDKN2A gene expression,[1],3.8 and 3.836
same,RQ CRK gene expression,[1],6.2 and 6.172
same,RQ CTNNB1 gene expression,[1],1.930
same,RQ CYCS gene expression,[1],1.927
same,RQ DVL1 gene expression,[1],2.7 and 2.712
same,RQ E2F1 gene expression,[1],7.1 and 7.081
same,RQ EGFR gene expression,[1],2.0 and 1.985
same,RQ ELK1 gene expression,[1],5.2 and 5.179
same,RQ ERBB2 gene expression,[1],2.2 and 2.186
same,RQ FADD gene expression,[1],1.854
same,RQ FAS gene expression,[1],2.9 and 2.845
same,RQ FGF2 gene expression,[1],5.5 and 5.503
same,RQ FOS gene expression,[1],1.472
same,RQ FYN gene expression,[1],2.2 and 2.240
same,RQ FZD1 gene expression,[1],4.8 and 4.807
same,RQ GRB2 gene expression,[1],0.855
same,RQ GSK3B gene expression,[1],0.999
same,RQ HRAS gene expression,[1],2.1 and 2.071
same,RQ IGF1R gene expression,[1],1.052
same,RQ ITGA2B gene expression,[1],5.4 and 5.437
same,RQ ITGAV gene expression,[1],1.126
same,RQ ITGB1 gene expression,[1],1.547
same,RQ ITGB3 gene expression,[1],1.478
same,RQ JUN gene expression,[1],4.5 and 4.475
same,RQ KRAS gene expression,[1],4.8 and 4.786
same,RQ MAP2K1 gene expression,[1],2.6 and 2.591
same,RQ MAP3K5 gene expression,[1],1.752
same,RQ MAPK1 gene expression,[1],2.1 and 2.124
same,RQ MAPK3 gene expression,[1],1.762
same,RQ MAPK8 gene expression,[1],1.293
same,RQ MAPK14 gene expression,[1],3.0 and 3.025
same,RQ MDM2 gene expression,[1],3.2 and 3.153
same,RQ MYC gene expression,[1],4.3 and 4.304
same,RQ NFKB1 gene expression,[1],2.2 and 2.156
same,RQ NFKB2 gene expression,[1],3.6 and 3.621
same,RQ NFKBIA gene expression,[1],1.342
same,RQ NRAS gene expression,[1],1.862
same,RQ PIK3CA gene expression,[1],1.265
same,RQ PIK3R1 gene expression,[1],1.408
same,RQ PTEN gene expression,[1],0.644
same,RQ PTK2B gene expression,[1],0.803
same,RQ PTK2 gene expression,[1],2.0 and 2.034
same,RQ RAC1 gene expression,[1],1.199
same,RQ RAF1 gene expression,[1],4.7 and 4.645
same,RQ RB1 gene expression,[1],0.795
same,RQ RELA gene expression,[1],2.4 and 2.403
same,RQ RHOA gene expression,[1],1.541
same,RQ SHC1 gene expression,[1],3.7 and 3.702
same,RQ SMAD4 gene expression,[1],3.6 and 3.549
same,RQ SOS1 gene expression,[1],5.0 and 4.992
same,RQ SRC gene expression,[1],1.833
same,RQ TCF3 gene expression,[1],3.2 and 3.166
same,RQ TGFB1 gene expression,[1],1.267
same,RQ TGFBR1 gene expression,[1],1.352
same,RQ TGFBR2 gene expression,[1],1.069
same,RQ TP53 gene expression,[1],0.5 and 0.471
same,RQ VEGFA gene expression,[1],3.8 and 3.759
same,IC50,[2],3.9 µM
same,IC50,[3],5.3 µM
same,IC50,[4],8 µM
same,IC50,[5],4.1 µM
same,IC50,[6],12.4 µM
same,IC50,[7],4.6 µM
same,reduction of the number of viable cells,"[8]; HepG2, 12 μM, 24 h",57.2%
same,reduction of the number of viable cells,"[8]; HepG2, 12 μM, 48 h",74.6%
same,reduction of the number of viable cells,"[8]; HepG2, 12 μM, 72 h",73.8%
same,reduction of the number of viable cells,"[8]; HepG2, 24 μM, 24 h",62.2%
same,reduction of the number of viable cells,"[8]; HepG2, 24 μM, 48 h",73.9%
same,reduction of the number of viable cells,"[8]; HepG2, 24 μM, 72 h",82.1%
same,change in the number of viable cells,"[8]; HepG2, 12 and 24 μM, 12 h",No significant decrease in the number of viable cells
same,IC50,[9],6.6 µM
